Source: patent publication US20110184188A1, “Insecticidal Benzenedicarboxamide Derivative” (priority 2008, published 2011)

Test: logP(acid) by reverse phase (C18) chromatography at pH 2.3
Assay type: physicochemical
Settings: reverse phase (C18) chromatography at pH 2.3

| SMILES | logP (acid) |
| --- | --- |
| COc1ccc(Br)c(C(=O)Nc2ccc(Cn3nc(C(F)(F)F)cc3C(F)(F)F)nc2C)c1C(=O)N[C@@H](C)C[S+](C)[O-] (some centres unmarked) [11-17] | logP (acid) 2.6 |
| COc1ccc(Br)c(C(=O)Nc2ccc(Cn3nc(C(F)(F)C(F)(F)F)cc3C(F)(F)F)nc2C)c1C(=O)N[C@@H](C)CSC [11-19] | logP (acid) 4.02 |
| COc1ccc(Br)c(C(=O)Nc2ccc(Cn3nc(C(F)(F)C(F)(F)F)cc3C(F)(F)F)nc2C)c1C(=O)N[C@@H](C)C[S+](C)[O-] (some centres unmarked) [11-20] | logP (acid) 2.90 |
| CSC[C@H](C)NC(=O)c1c(Cl)ccc(Cl)c1C(=O)Nc1ccc(Cn2nc(C(F)(F)F)cc2C(F)(F)F)cc1C [11-21] | logP (acid) 3.88 |
| Cc1cc(Cn2nc(C(F)(F)F)cc2C(F)(F)F)ccc1NC(=O)c1c(Cl)ccc(Cl)c1C(=O)N[C@@H](C)CS(C)(=O)=O [11-23] | logP (acid) 3.40 |
| CSC[C@H](C)NC(=O)c1c(Cl)ccc(Cl)c1C(=O)Nc1ccc(Cn2nc(C(F)(F)F)nc2C(F)(F)F)cc1C [11-26] | logP (acid) 4.25 |
| CSC[C@H](C)NC(=O)c1c(Cl)ccc(Cl)c1C(=O)Nc1ccc(Cn2nc(C(F)(F)C(F)(F)F)nc2C(F)(F)F)cc1C [11-27] | logP (acid) 4.51 |
| Cc1cc(Cn2nc(C(F)(F)C(F)(F)F)nc2C(F)(F)F)ccc1NC(=O)c1c(Cl)ccc(Cl)c1C(=O)N[C@@H](C)CS(C)(=O)=O [11-29] | logP (acid) 3.50 |
| CSC[C@H](C)NC(=O)c1c(Cl)ccc(Br)c1C(=O)Nc1ccc(Cn2nc(C(F)(F)C(F)(F)F)nc2C(F)(F)F)cc1C [11-30] | logP (acid) 4.28 |
| Cc1cc(Cn2nc(C(F)(F)C(F)(F)F)nc2C(F)(F)F)ccc1NC(=O)c1c(Br)ccc(Cl)c1C(=O)N[C@@H](C)CS(C)(=O)=O [11-32] | logP (acid) 3.47 |
| COc1ccc(Br)c(C(=O)Nc2ccc(Cn3nc(C(F)(F)C(F)(F)F)nc3C(F)(F)F)cc2C)c1C(=O)N[C@@H](C)CSC [11-38] | logP (acid) 4.14 |
| CNC(=O)c1cc(Cl)cc(Cl)c1C(=O)Nc1ccc(Cn2nc(C(F)(F)F)cc2C(F)(F)F)cc1C [12-1] | logP (acid) 3.69 |
| CNC(=O)c1cc(Cl)cc(Cl)c1C(=O)Nc1ccc(Cn2nc(C(F)(F)F)nc2C(F)(F)F)cc1C [12-4] | logP (acid) 3.39 |
| CSC[C@H](C)NC(=O)c1c(Cl)cccc1C(=O)Nc1ccc(Cn2nc(C(F)F)c(Cl)c2C(F)F)nc1C [13-27] | 3.21 |
| CSC[C@H](C)NC(=O)c1c(Cl)cccc1C(=O)Nc1ccc(Cn2nc(C(F)F)c(Br)c2C(F)F)nc1C [13-28] | 3.20 |
| CSC[C@H](C)NC(=O)c1c(Cl)cccc1C(=O)Nc1ccc(Cn2cc(C(F)(F)C(F)(F)F)c(C(F)(F)C(F)(F)F)n2)nc1C [13-50] | 4.27 |
| Cc1nc(Cn2nc(C(F)(F)C(F)(F)F)cc2C(F)(F)F)ccc1NC(=O)c1cccc(Cl)c1C(=O)N[C@@H](C)C[S+](C)[O-] (some centres unmarked) [13-70] | 2.86 |
| Cc1nc(Cn2nc(C(F)F)c(Cl)c2C(F)F)ccc1NC(=O)c1cccc(Cl)c1C(=O)N[C@@H](C)CS(C)(=O)=O [13-76] | 2.48 |
| Cc1nc(Cn2cc(C(F)(F)C(F)(F)F)c(C(F)(F)C(F)(F)F)n2)ccc1NC(=O)c1cccc(Cl)c1C(=O)N[C@@H](C)CS(C)(=O)=O [13-110] | logP (acid) 3.46 |
| CSC[C@H](C)NC(=O)c1c(Br)cccc1C(=O)Nc1ccc(Cn2nc(C(F)F)c(Cl)c2C(F)F)nc1C [13-126] | logP (acid) 3.28 |
| CSC[C@H](C)NC(=O)c1c(Br)cccc1C(=O)Nc1ccc(Cn2cc(C(F)(F)C(F)(F)F)c(C(F)(F)C(F)(F)F)n2)nc1C [13-134] | logP (acid) 4.35 |
| CSC[C@H](C)NC(=O)c1c(Br)cccc1C(=O)Nc1ccc(Cn2nc(C(F)(F)C(F)(F)F)cc2C(F)(F)F)nc1C [13-135] | logP (acid) 4.30 |
| Cc1nc(Cn2nc(C(F)(F)C(F)(F)C(F)(F)F)cc2C(F)(F)F)ccc1NC(=O)c1cccc(Br)c1C(=O)N[C@@H](C)C[S+](C)[O-] (some centres unmarked) [13-136] | logP (acid) 3.08 |
